Measured values as given in US9107891B2, “Method for alleviating fear memory” (NIPPON SUISAN KAISHA, LTD., priority 2011, dated 2015).

Assays:
[1] = test system: pyramidal cells in the basolateral nucleus of amygdala; assay: Patch-clamp in brain slices: depolarization-induced suppression of excitation (DSE); type: cell-based; design: unit of the concentration uncertain; settings: both groups of mice
From the text: Patch-clamp recordings from pyramidal cells in the amygdala were taken in accordance with the methods described in Non-Patent Documents 21 and 22. […] The access resistance was frequently checked during recording and any cells that experienced substantial changes (±20%) in its value during recording were excluded from analysis.
Whole-cell patch recordings were taken from pyramidal cells in the basolateral nucleus of amygdala. A bipolar glass electrode filled with an artificial cerebrospinal fluid was placed in the vicinity of the cell to be recorded and an electric stimulus was applied to the slice. First, the evoked excitatory postsynaptic current (eEPSC) was recorded from neurons in the amygdala. Subsequently, the cell being recorded was depolarized for 10 seconds and, immediately thereafter, eEPSC was recorded again. The ratio of the amplitude of eEPSC after depolarization (Ipost) to that of EPSC before depolarization (Ipre) (Ipost/Ipre) was calculated, and was used to assess the degree of DSE. In addition, to confirm the cannabinoid receptor dependency of DSE, recording was conducted with a brain slice immersed in an artificial cerebrospinal fluid containing rimonabant (5 mM). […] Thus, DSE was recorded in a brain slice immersed in an artificial cerebrospinal fluid containing capsaicin (10 mM) and the resulting changes were also studied.

fear memory in mice = assay: Fear conditioning test (freezing time); type: in vivo; settings: administered 30 minutes before fear conditioning, 5% krill oil diet 6 weeks
From the text: The present inventors evaluated the actions of food ingredients on fear memory by the “fear conditioning experiment” (J Neurosci 27 158-166, 2007) which is extensively used as an evaluation system for fear memory in mice.
A cubic experimental box made of acrylic resin having a bottom of 20 cm×20 cm and a height of 33 cm, with a conductive metallic grid being laid across the bottom, was used as a new environment for conditioning; each mouse was put into the experimental box and conditioned by applying electric shocks (0.8 mA, 2 s) from the bottom grid. Feeling an intense pain from each electric shock, a mouse memorizes that when placed in the new environment, it will suffer pain from electric shocks. The mice were then returned to the breeding cage where they had been kept before the conditioning.
On the next day (the second day of the behavioral experiment), each mouse was put again into the experimental box where it was given electric shocks on the previous day; even in the absence of applied electric shocks, it would be scared to cringe, a characteristic freezing behavior from fear. The degree of fear memory was assessed by the degree of the freezing behavior, namely, the freezing time during a 3-minute exposure to the experimental box. […]

For `Cc1c(C(=O)NN2CCCCC2)nn(-c2ccc(Cl)cc2Cl)c1-c1ccc(Cl)cc1` [rimonabant], the “effect on DSE” value ([1]; brain slice in artificial cerebrospinal fluid containing rimonabant (5 (unit uncertain))) was “suppressed DSE almost completely” and the “freezing time, rimonabant-administered krill oil group vs solvent-administered control group” value (fear memory in mice; Test Example 11, FIG. 12) was “No significant difference”.

`COc1cc(CNC(=O)CCCC/C=C/C(C)C)ccc1O` [capsaicin] was tested, and the “effect on DSE” value ([1]; brain slice in artificial cerebrospinal fluid containing capsaicin (10 (unit uncertain))) was “suppress DSE”.

With `C=CCN1CC[C@]23c4c5ccc(O)c4O[C@H]2C(=O)CC[C@@]3(O)[C@H]1C5` [naloxone] the “freezing time, naloxone-administered krill oil group vs solvent-administered krill group” value (fear memory in mice; Test Example 12, FIG. 13) was “no difference in freezing time”.
